Activity calls are given as the source filed them. The calls are words filed in the database; no cut-off is given here.
Assays:
[1] = biological target: T1, Nuclear receptor ROR-gamma (Homo sapiens, UniProt P51449); assay: Inverse agonist activity at N-terminal 6-His-tagged/APC-labeled human RORgammat LBD extracted from Escherichia coli assessed as inhibition of europium-labeled SRC-1 recruitment incubated for 3 hrs by TR-FRET analysis
T1 sequence (P51449 whole entry): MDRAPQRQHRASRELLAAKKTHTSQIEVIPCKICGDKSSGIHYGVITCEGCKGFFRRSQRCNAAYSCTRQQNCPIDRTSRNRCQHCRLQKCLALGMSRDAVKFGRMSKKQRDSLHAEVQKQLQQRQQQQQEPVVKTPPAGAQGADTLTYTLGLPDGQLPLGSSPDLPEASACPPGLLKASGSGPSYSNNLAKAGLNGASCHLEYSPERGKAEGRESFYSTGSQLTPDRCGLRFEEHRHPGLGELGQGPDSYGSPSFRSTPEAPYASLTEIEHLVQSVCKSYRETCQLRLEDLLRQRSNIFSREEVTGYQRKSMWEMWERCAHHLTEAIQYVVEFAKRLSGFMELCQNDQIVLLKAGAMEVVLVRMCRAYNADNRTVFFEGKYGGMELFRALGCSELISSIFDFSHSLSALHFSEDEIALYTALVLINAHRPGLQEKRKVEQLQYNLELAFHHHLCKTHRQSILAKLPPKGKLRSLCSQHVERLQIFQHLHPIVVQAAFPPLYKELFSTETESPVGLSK

[2] = biological target: T1, Nuclear receptor ROR-gamma; assay: Inverse agonist activity at GAL4 DNA-binding domain fused RORgamma (unknown origin) transfected in HEK293T cells co-transfected with GAL4-promoter driven luciferase reporter gene assessed as inhibition of RORgammat transcription incubated for 18 to 20 hrs by plate reader analysis; format: cell-based
HeLa = assay: Antiproliferative activity against human HeLa cells assessed as inhibition of colony formation at 2 to 8 uM incubated for 7 days by crystal violet staining based light microscopic analysis; format: toxicity, cell-based; conditions: 168 h, dose 2-8 µM, time 7 day
HUVEC = assay: Antiproliferative activity against HUVEC cells assessed as inhibition of colony formation at 2 to 8 uM incubated for 7 days by crystal violet staining based light microscopic analysis; format: toxicity, cell-based; conditions: human, 168 h, dose 2-8 µM, time 7 day
[3] = Toxicity in chicken type II collagen-induced arthritis DBA/1 mouse model assessed as morphological changes in thymocytes at 20 mg/kg/day, po administered for 2 weeks by H and E staining based analysis; format: organism-based; conditions: in vivo, 336 h
[4] = Toxicity in chicken type II collagen-induced arthritis DBA/1 mouse model assessed as increase in thymic cortex to medulla ratio at 20 mg/kg/day, po administered for 2 weeks by H and E staining based analysis; format: organism-based; conditions: in vivo, 336 h
[5] = Toxicity in chicken type II collagen-induced arthritis DBA/1 mouse model assessed as body weight loss at 20 mg/kg/day, po measured after 42 days; format: organism-based; conditions: in vivo, 1008 h, time 42 day
[6] = Toxicity in chicken type II collagen-induced arthritis DBA/1 mouse model assessed as behavioral abnormalities at 20 mg/kg/day, po measured after 42 days; format: organism-based; conditions: in vivo, 1008 h, time 42 day
Mus musculus [7] = assay: Antiarthritic activity in chicken type II collagen-induced arthritis DBA/1 mouse model assessed as reduction in hind paw erythema at 20 mg/kg/day, po administered for 2 weeks by H and E staining based analysis; format: functional, organism-based
Mus musculus [8] = assay: Antiarthritic activity in chicken type II collagen-induced arthritis DBA/1 mouse model assessed as reduction in fore paw thickness at 20 mg/kg/day, po administered for 2 weeks by H and E staining based analysis; format: functional, organism-based
Mus musculus [9] = assay: Antiarthritic activity in chicken type II collagen-induced arthritis DBA/1 mouse model assessed as reduction in fore paw erythema at 20 mg/kg/day, po administered for 2 weeks by H and E staining based analysis; format: functional, organism-based
Mus musculus [10] = assay: Antiarthritic activity in chicken type II collagen-induced arthritis DBA/1 mouse model assessed as improvement in arthritic symptoms at 20 mg/kg/day, po administered for 2 weeks by H and E staining based analysis; format: functional, organism-based
Mus musculus [11] = assay: Antiarthritic activity in chicken type II collagen-induced arthritis DBA/1 mouse model assessed as reduction in clinical score at 20 mg/kg/day, po measured after 42 days; format: functional, organism-based; conditions: time 42.0 day
Mus musculus [12] = assay: Antiarthritic activity in chicken type II collagen-induced arthritis DBA/1 mouse model assessed as reduction in hind paw thickness at 20 mg/kg/day, po administered for 2 weeks by H and E staining based analysis; format: functional, organism-based
Mus musculus [13] = assay: Antiarthritic activity in chicken type II collagen-induced arthritis DBA/1 mouse model assessed as reduction in fore paw swelling at 20 mg/kg/day, po administered for 2 weeks by H and E staining based analysis; format: functional, organism-based
[14] = Toxicity in chicken type II collagen-induced arthritis DBA/1 mouse model assessed as signs of thymic enlargement at 20 mg/kg/day, po administered for 2 weeks by H and E staining based analysis; format: organism-based; conditions: in vivo, 336 h
[15] = Toxicity in chicken type II collagen-induced arthritis DBA/1 mouse model assessed as signs of lymphoma at 20 mg/kg/day, po administered for 2 weeks by H and E staining based analysis; format: organism-based; conditions: in vivo, 336 h
Mus musculus [16] = assay: Antiarthritic activity in chicken type II collagen-induced arthritis DBA/1 mouse model assessed as reduction in hind paw swelling at 20 mg/kg/day, po administered for 2 weeks by H and E staining based analysis; format: functional, organism-based

SMILES	IC50 [1] [µM]	further results
CCc1ccc2c(c1)CCC(C)(C)N2S(=O)(=O)c1ccc(OCC2CCOCC2)c(CO)c1	0.31	–
CC[C@H]1CCc2cc(C(C)C)ccc2N1S(=O)(=O)c1ccc(OCC2CCOCC2)c(CO)c1	0.0084	IC50 [2]: 0.0221 µM
CCc1ccc2c(c1)CCCN2S(=O)(=O)c1ccc(OCC2CCOCC2)c(CO)c1	0.858	–
CCc1ccc2c(c1)CCC(CC)N2S(=O)(=O)c1ccc(OCC2CCOCC2)c(CO)n1 (racemic)	0.212	–
CCc1ccc2c(c1)CCC(CC)N2S(=O)(=O)c1ccc(OCc2ccncn2)c(CO)c1 (racemic)	0.3	–
CCc1ccc2c(c1)CCC(CC)N2S(=O)(=O)c1ccc(OCCC(C)(C)O)c(CO)c1 (racemic)	0.459	–
CC1CCc2cc(C#N)ccc2N1S(=O)(=O)c1ccc(OCC2CCOCC2)c(CO)c1 (racemic)	0.689	–
CCc1ccc2c(c1)CCC(CC)N2S(=O)(=O)c1ccc(OCC2CCOCC2)c(S(C)(=O)=O)c1 (racemic)	1.86	–
CCc1ccc2c(c1)CC(C)CN2S(=O)(=O)c1ccc(OCC2CCOCC2)c(CO)c1 (racemic)	0.036	–
CCc1ccc2c(c1)CCC(CC)N2S(=O)(=O)c1ccc(C(CO)N2CCOCC2)c(CO)c1 (racemic)	3.12	–
CCc1ccc2c(c1)CCC(CC)N2S(=O)(=O)c1ccc(OCC2CCOCC2)c(CO)c1 (racemic)	0.011	Activity (HeLa): Non-Toxic; Activity (HUVEC): Non-Toxic
CCc1ccc2c(c1)CCC(CC)N2S(=O)(=O)c1ccc(OC2CN(C(C)=O)C2)c(CO)c1 (racemic)	1.76	–
CCc1ccc2c(c1)CCC(C)N2S(=O)(=O)c1ccc(OCC2CCOCC2)c(CO)c1 (racemic)	0.024	–
CCc1ccc2c(c1F)CCC(CC)N2S(=O)(=O)c1ccc(OCC2CCOCC2)c(CO)c1 (racemic)	0.014	–
CCC1CCc2cc(C(F)(F)F)ccc2N1S(=O)(=O)c1ccc(OCC2CCOCC2)c(CO)c1 (racemic)	0.021	–
CCc1ccc2c(c1)C(C)CCN2S(=O)(=O)c1ccc(OCC2CCOCC2)c(CO)c1 (racemic)	0.655	–
CCc1ccc2c(c1)CCC(CC)N2S(=O)(=O)c1ccc(OC2CCN(S(C)(=O)=O)CC2)c(CO)c1 (racemic)	0.17	–
CCC1CCc2cc(CC(C)(F)F)ccc2N1S(=O)(=O)c1ccc(OCC2CCOCC2)c(CO)c1 (racemic)	0.016	–

SMILES	IC50 [1] [µM]	further results
CCc1ccc2c(c1)CCC(CC)N2S(=O)(=O)c1ccc(C(O)CC2CCOCC2)c(CO)c1 (racemic)	0.201	–
CCC1CCc2cc(C(C)(C)O)ccc2N1S(=O)(=O)c1ccc(OCC2CCOCC2)c(CO)c1 (racemic)	1.4	–
CCc1ccc2c(c1)CCC(CC)N2S(=O)(=O)c1ccc(OCCS(C)(=O)=O)c(CO)c1 (racemic)	1.43	–
CC1CCc2cc(C3CC3)ccc2N1S(=O)(=O)c1ccc(OCC2CCOCC2)c(CO)c1 (racemic)	0.021	–
CCc1ccc2c(c1)CCC(C(F)(F)F)N2S(=O)(=O)c1ccc(OCC2CCOCC2)c(CO)c1 (racemic)	0.023	–
CCC1CCc2cc(CC(F)(F)F)ccc2N1S(=O)(=O)c1ccc(OCC2CCOCC2)c(CO)c1 (racemic)	0.023	–
CCc1ccc2c(c1)CCC(CC)N2S(=O)(=O)c1ccc(OCC2CCS(=O)(=O)CC2)c(CO)c1 (racemic)	0.146	–
C=C(C)c1ccc2c(c1)CCC(CC)N2S(=O)(=O)c1ccc(OCC2CCOCC2)c(CO)c1 (racemic)	0.012	–
CCc1ccc2c(c1)CCC(C(C)C)N2S(=O)(=O)c1ccc(OCC2CCOCC2)c(CO)c1 (racemic)	0.002	–
CCc1ccc2c(c1)CCC(CO)N2S(=O)(=O)c1ccc(OCC2CCOCC2)c(CO)c1 (racemic)	3.42	–
CCC1CCc2cc(C(C)(C)C)ccc2N1S(=O)(=O)c1ccc(OCC2CCOCC2)c(CO)c1 (racemic)	0.07	–
CCc1ccc2c(c1)CCC(CC)N2S(=O)(=O)c1ccc(OCC2CCOCC2)c(S(N)(=O)=O)c1 (racemic)	0.576	–
CCc1cnc2c(c1)CCC(CC)N2S(=O)(=O)c1ccc(OCC2CCOCC2)c(CO)c1 (racemic)	0.035	–
CCc1ccc2c(c1)CCC(CC(C)C)N2S(=O)(=O)c1ccc(OCC2CCOCC2)c(CO)c1 (racemic)	0.021	–
CCc1ccc2c(c1)CC(CC)CN2S(=O)(=O)c1ccc(OCC2CCOCC2)c(CO)c1 (racemic)	0.032	–
C=Cc1ccc2c(c1)CCC(CC)N2S(=O)(=O)c1ccc(OCC2CCOCC2)c(CO)c1 (racemic)	0.036	–
O=C([O-])Cc1ccccc1Nc1c(Cl)cccc1Cl.[Na+] [DICLOFENAC SODIUM]	–	Activity [3]: Non-Toxic; Activity [4]: Toxic; Activity [5]: Non-Toxic; Activity [6]: Non-Toxic; Activity (Mus musculus [7]): Active; Activity (Mus musculus [8]): Active; Activity (Mus musculus [9]): Active; Activity (Mus musculus [10]): Active; Activity (Mus musculus [11]): Active; Activity (Mus musculus [12]): Active; Activity (Mus musculus [13]): Active; Activity [14]: Non-Toxic; Activity [15]: Non-Toxic; Activity (Mus musculus [16]): Active
